From paper PMC10401666 (RSC Advances, 2023)
Where two headings read alike, the source gives them in different places. One block for each compound: values may come before it.

Experiments:
MCF-7 = experiment: MTT anti-proliferative assay, MCF-7; assay type: cell-based; conditions: Homo sapiens, MCF7, read-out: IC50 MCF-7
HepG2 = experiment: MTT anti-proliferative assay, HepG2; assay type: cell-based, human; conditions: mean of three experiments
MCF-7 cells [1] = experiment: Cell cycle analysis by flow cytometry; assay type: cell-based, human; conditions: MCF-7, 10.17 μM, 72 h
MCF-7 cells [2] = experiment: Apoptosis assay, annexin V / PI flow cytometry; assay type: cell-based, human; conditions: MCF-7, 10.17 μM, 72 h
BAX = BAX level in MCF-7 cells; assay type: cell-based, human; conditions: MCF-7, 10.17 μM
Bcl-2 = Bcl-2 level in MCF-7 cells; assay type: cell-based, human; conditions: MCF-7, 10.17 μM
caspase-8 = experiment: Caspase-8 level in MCF-7 cells; assay type: cell-based, human; conditions: MCF-7, 10.17 μM
caspase-9 = experiment: Caspase-9 level in MCF-7 cells; assay type: cell-based, human; conditions: MCF-7, 10.17 μM
TNF-α = TNF-α level in MCF-7 cells; assay type: cell-based, human
IL6 = IL6 level in MCF-7 cells; assay type: cell-based, human
VEGFR-2 = VEGFR-2 (Homo sapiens, UniProt P35968); experiment: biochemical
VEGFR-2, sequence (P35968 20-1356): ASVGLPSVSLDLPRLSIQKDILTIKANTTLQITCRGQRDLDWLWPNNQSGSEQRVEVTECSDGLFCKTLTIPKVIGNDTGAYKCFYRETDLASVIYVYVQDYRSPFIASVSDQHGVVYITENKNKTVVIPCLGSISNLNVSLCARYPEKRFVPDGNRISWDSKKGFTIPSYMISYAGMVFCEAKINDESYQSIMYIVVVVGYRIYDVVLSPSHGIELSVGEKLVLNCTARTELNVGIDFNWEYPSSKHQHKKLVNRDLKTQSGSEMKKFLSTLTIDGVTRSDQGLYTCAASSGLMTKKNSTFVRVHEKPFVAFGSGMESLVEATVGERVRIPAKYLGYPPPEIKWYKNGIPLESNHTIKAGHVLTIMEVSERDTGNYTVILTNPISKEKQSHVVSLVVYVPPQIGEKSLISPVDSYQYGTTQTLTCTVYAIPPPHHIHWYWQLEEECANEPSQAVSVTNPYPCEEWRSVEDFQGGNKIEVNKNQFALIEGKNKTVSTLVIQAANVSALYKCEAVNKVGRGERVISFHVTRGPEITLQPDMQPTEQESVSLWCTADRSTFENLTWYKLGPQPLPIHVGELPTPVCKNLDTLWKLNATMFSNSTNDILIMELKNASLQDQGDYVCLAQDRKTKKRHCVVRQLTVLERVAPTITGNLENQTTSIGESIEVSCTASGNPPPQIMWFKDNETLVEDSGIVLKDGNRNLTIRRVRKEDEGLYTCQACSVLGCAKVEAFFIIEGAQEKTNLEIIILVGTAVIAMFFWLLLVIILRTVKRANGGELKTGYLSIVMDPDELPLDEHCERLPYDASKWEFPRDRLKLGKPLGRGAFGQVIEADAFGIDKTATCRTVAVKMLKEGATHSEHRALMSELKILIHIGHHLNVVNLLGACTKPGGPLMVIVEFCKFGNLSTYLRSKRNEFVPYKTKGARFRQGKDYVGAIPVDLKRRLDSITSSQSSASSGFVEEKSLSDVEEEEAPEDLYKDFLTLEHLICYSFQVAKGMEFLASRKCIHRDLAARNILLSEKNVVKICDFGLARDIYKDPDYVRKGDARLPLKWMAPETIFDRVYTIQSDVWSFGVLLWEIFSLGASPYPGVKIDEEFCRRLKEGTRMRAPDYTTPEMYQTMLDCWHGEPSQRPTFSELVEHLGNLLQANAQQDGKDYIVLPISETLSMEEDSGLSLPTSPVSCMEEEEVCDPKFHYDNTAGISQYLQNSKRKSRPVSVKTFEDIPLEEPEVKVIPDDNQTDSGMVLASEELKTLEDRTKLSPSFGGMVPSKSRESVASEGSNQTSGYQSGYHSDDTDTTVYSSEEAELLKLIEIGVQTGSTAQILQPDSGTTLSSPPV

[3] = Homo sapiens, HepG2, read-out: IC50 HepG2, MTT assay

Compound: O=C(CSc1nnc(Cn2cnc3sc4c(c3c2=O)CCCC4)o1)N1CCCCC1 [Compound 18, 3-((5-((2-Oxo-2-(piperidin-1-yl)ethyl)thio)-1,3,4-oxadiazol-2-yl)methyl)-5,6,7,8-tetrahydrobenzo[4,5]thieno[2,3-d]pyrimidin-4(3H)-one]
IC50 (MCF-7): 10.2 ± 1.01 µM
IC50 (HepG2; [3]): 24.5 µM
IC50 (HepG2; read-out: IC50 HepG2, MTT assay): 24.3 ± 2.08 µM
Cell cycle distribution (%) % G2/M (MCF-7 cells [1]): 15.4%
Cell cycle distribution (%) %G0–G1 (MCF-7 cells [1]): 56.46%
Cell cycle distribution (%) %S (MCF-7 cells [1]): 28.14%
Apoptosis induced (early + late) (MCF-7 cells [2]): 23.35%
Early apoptosis (MCF-7 cells [2]): 15.96%
Late apoptosis (MCF-7 cells [2]): 7.39%
Necrosis (MCF-7 cells [2]): 2.41
Total (cell death) (MCF-7 cells [2]): 25.76
BAX level increase vs control (BAX): 3.6 fold
Protein expression BAX (BAX; control = 1): 3.669
Bcl-2 level decrease vs control (Bcl-2): 3.1 fold
Protein expression Bcl-2 (Bcl-2; control = 1): 0.315
Caspase-8 level increase vs control (caspase-8): 2.6 fold
Protein expression Caspase-8 (caspase-8; control = 1): 2.607
Caspase-9 level increase vs control (caspase-9): 5.4 fold
Protein expression Caspase-9 (caspase-9; control = 1): 5.422
TNF-α level lower than control (TNF-α): 2.9 times
TNF-α level (TNF-α; control = 1): 0.335
IL6 level lower than control (IL6): 2.5 times
IL6 level (IL6; control = 1): 0.393

IC50 (MCF-7): 16.5 ± 1.16 µM
IC50 (HepG2; [3]): 31.8 ± 1.15 µM
IC50 (VEGFR-2): 0.29 ± 0.007 µM
Compound: O=C(CSc1nnc(Cn2cnc3sc4c(c3c2=O)CCCC4)o1)Nc1c([N+](=O)[O-])cccc1[N+](=O)[O-] [Compound 19, N-(2,6-Dinitrophenyl)-2-((5-((4-oxo-5,6,7,8-tetrahydrobenzo[4,5]thieno[2,3-d]pyrimidin-3(4H)-yl)methyl)-1,3,4-oxadiazol-2-yl)thio)acetamide]

IC50 (MCF-7): 5.38 ± 0.45 µM
IC50 (HepG2; [3]): 4.84 ± 0.38 µM
Compound: O=C(CSc1nnc(Cn2cnc3sc4c(c3c2=O)CCCC4)o1)Nc1ccc(Cl)cn1 [Compound 20, N-(5-Chloropyridin-2-yl)-2-((5-((4-oxo-5,6,7,8-tetrahydrobenzo[4,5]thieno[2,3-d]pyrimidin-3(4H)-yl)methyl)-1,3,4-oxadiazol-2-yl)thio)acetamide]

IC50 (MCF-7): 6.31 ± 0.16 µM
IC50 (HepG2; [3]): 11.8 ± 1.05 µM
IC50 (VEGFR-2): 0.42 ± 0.008 µM
Compound: O=C(CSc1nnc(Cn2cnc3sc4c(c3c2=O)CCCC4)o1)Nc1nccs1 [Compound 21, 2-((5-((4-Oxo-5,6,7,8-tetrahydrobenzo[4,5]thieno[2,3-d]pyrimidin-3(4H)-yl)methyl)-1,3,4-oxadiazol-2-yl)thio)-N-(thiazol-2-yl)acetamide]

IC50 (MCF-7): 5.73 ± 0.18 µM
IC50 (HepG2; [3]): 5.51 ± 0.25 µM
Compound: O=C(CSc1nnc(Cn2cnc3sc4c(c3c2=O)CCCC4)o1)Nc1nc2ccccc2s1 [Compound 22, N-(Benzo[d]thiazol-2-yl)-2-((5-((4-oxo-5,6,7,8-tetrahydrobenzo[4,5]thieno[2,3-d]pyrimidin-3(4H)-yl)methyl)-1,3,4-oxadiazol-2-yl)thio)acetamide]

IC50 (MCF-7): 9.98 ± 0.6 µM
IC50 (HepG2; [3]): 13.3 ± 0.3 µM
Compound: CNC(=O)c1cc(Oc2ccc(NC(=O)Nc3ccc(Cl)c(C(F)(F)F)c3)cc2)ccn1 [Sorafenib, reference compound]
